The structures appear in SMILES notation.

For assay [1], the target named is T1, LAL (Cricetulus griseus, UniProt G3HQY6).
T1 sequence (G3HQY6 19-397): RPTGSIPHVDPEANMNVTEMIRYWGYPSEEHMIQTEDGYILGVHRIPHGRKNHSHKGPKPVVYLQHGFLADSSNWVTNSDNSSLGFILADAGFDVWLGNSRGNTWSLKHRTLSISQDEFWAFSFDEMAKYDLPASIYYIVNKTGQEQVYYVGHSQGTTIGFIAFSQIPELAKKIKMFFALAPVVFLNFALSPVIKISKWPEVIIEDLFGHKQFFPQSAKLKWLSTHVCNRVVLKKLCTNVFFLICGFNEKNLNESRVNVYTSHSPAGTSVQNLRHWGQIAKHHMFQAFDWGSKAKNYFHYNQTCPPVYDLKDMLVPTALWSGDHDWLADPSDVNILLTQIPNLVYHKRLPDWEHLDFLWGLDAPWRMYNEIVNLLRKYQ
Put plainly: PS-20 remaining in mAb formulation with and without Lalistat-2. Format: biochemical. More on the design: endogenous in cells; host or cells: mAb production cells (CHO inferred). Conditions: mAb-15 comprising 0.05% PS-20, 37° C., 15 days, 0.1 M Lalistat-2. As for the experimental part: mAb-15 comprising 0.05% PS-20 was incubated at 37° C. for 15 days in presence and absence of 0.1 M Lalistat-2. The incubated samples were analyzed at t=0, 8 days and […].

For the next assay, the target named is T2, LPL (Homo sapiens, UniProt P06858).
T2 sequence (P06858 28-475): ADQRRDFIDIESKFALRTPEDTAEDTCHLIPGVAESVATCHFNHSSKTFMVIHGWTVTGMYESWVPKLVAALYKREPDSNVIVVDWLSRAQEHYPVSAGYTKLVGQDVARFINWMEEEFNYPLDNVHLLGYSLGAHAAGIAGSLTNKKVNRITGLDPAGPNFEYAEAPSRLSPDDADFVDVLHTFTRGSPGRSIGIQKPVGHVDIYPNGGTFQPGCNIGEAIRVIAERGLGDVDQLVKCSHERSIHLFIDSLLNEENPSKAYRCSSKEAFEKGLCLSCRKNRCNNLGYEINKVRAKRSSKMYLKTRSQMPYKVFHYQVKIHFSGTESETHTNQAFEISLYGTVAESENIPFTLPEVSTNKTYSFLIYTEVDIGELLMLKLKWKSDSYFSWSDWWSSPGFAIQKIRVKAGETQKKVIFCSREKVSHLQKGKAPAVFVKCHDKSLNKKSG
Put plainly: PS-20 remaining with LPL, with and without Lalistat-2. Format: biochemical. As to conditions: 0.05% PS-20 and 10 μg/mL LPL; t=0, 8 days and 15 days. As for the experimental part: Thus, addition of Lalistat only causes inhibition of LAL […]. […] The incubated samples were analyzed at t=0, 8 days and 15 days. […] Therefore, if lalistat2 can inhibit lipase activity in mAbs completely, then it means the LPL detected from mAbs were not active or abundance are too low to degrade PS20. The PS20 degradation seen from recombinant LPL may either due to the only LPL in high concentration can degrade PS20, or due to unexpected impurities presented in the recombinant LPL.

The target in assay [2] is T3, bovine milk lipoprotein lipase (Bos taurus, UniProt P11151).
T3 construct: host or cells: bovine milk
T3 sequence (P11151 29-478): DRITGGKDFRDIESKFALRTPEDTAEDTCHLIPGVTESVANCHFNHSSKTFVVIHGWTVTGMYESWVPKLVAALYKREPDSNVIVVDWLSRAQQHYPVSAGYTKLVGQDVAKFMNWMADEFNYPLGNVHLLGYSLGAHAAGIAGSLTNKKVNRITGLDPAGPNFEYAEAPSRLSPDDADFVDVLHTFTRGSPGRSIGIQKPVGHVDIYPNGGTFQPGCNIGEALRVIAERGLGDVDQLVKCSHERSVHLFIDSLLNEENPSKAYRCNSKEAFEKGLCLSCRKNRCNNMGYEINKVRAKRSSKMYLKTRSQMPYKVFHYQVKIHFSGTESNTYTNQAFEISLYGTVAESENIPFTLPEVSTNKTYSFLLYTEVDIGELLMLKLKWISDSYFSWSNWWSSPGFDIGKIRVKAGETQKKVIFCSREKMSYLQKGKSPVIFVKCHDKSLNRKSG
Conditions: cited from earlier work.

The target of assay [3] is T4, lysosomal acid lipase (LAL) (Homo sapiens, UniProt P38571).
T4 sequence (P38571 77-399): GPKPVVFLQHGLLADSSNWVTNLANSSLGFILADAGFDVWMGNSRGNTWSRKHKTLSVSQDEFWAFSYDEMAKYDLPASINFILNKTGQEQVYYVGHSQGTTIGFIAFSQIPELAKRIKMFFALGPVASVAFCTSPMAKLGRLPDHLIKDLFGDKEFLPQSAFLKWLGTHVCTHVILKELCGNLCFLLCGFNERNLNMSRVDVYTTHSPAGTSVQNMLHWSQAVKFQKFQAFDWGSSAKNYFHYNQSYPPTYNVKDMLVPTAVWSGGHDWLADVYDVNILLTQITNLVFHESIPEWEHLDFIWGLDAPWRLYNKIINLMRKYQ
As to conditions: cited from earlier work.

Assay [4] deals with T1, LAL. The assay can be described thus: PS-20 remaining with LAL, with and without Lalistat-2. In kind it is biochemical. Set-up: made in house; host or cells: CHO cells. As to conditions: 0.05% PS-20 and 5 μg/mL LAL; t=0, 8 days and 15 days. As for the experimental part:
The incubated samples were analyzed at t=0, 8 days and 15 days.

On to `O=C(Oc1nsnc1N1CCCCC1)N1CCCCC1` [Lalistat 2], for which the “degradation of PS-20 in mAb formulation incubated with Lalistat-2” value at LAL [1] is given as “almost no degradation of PS-20”. Also, at LPL, the “inhibition of LPL's activity (PS-20 remaining)” value is recorded as “cannot inhibit LPL's activity”. Moreover, the “inhibition of bovine milk lipoprotein lipase” value in assay [2] is given as “does not exhibit inhibition”. For the same compound, the half-maximal inhibitory concentration (IC50) in assay [3] is 152 nM. Further, on LAL [4], the “degradation of PS-20 in sample incubated with Lalistat-2” value is reported as “almost no degradation of PS-20”.

In general, IC50 refers to the point on the concentration scale where inhibition reaches its midpoint.
